Reference: ChEMBL document CHEMBL3507680, “University of Dundee, Gates Library screen for HepG2 cell viability”

Experiment: Human HepG2 cell viability assay in 384 well format
Type: toxicity, cell-based
Set-up: dose 125 nL, time 70.5 hour; concentration not given beside the values
Details: HepG2 cells, read-out: Inhibition

Row | SMILES | cytotoxicity at 70.5 h [%]
1 | COCC(=O)N1CC[C@]2(O)CCN(Cc3cccnc3OC)C[C@@H]2C1 | -7.29
2 | Cc1noc(-c2ccc(N(C)Cc3ccncn3)nc2)n1 | -5.88
3 | CNS(=O)(=O)c1ccc(CN2CCCN(Cc3ccncc3)CC2)cc1 | 16.9
4 | CN1CCN(C[C@@H]2CN(C3Cc4ccccc4C3)C[C@@H]2CO)CC1 | 22.1
5 | Cc1ncsc1CN(Cc1ccccc1)Cc1ncc[nH]1 | 17.5
6 | CN(C)CCn1ccnc1C1CCN(C(=O)CCC(F)(F)F)CC1 | -7.92
7 | O=C(O)[C@H]1C[C@H](C(=O)NC2CC2)CN(Cc2ccc(-c3cc[nH]n3)s2)C1 | 11.9
8 | CCCc1nc(N2CCCN(c3ncccn3)CC2)c2cnn(C)c2n1 | 4.78
9 | Cc1cc2c(=O)n(CCOCCO)cnc2s1 | -5.77
10 | CCN(Cc1nc(COC)no1)C(=O)CCNC(=O)c1ccccc1F | 22.4
11 | Cc1nc(-c2cccc(N3CCC(NC4CCSC4)CC3)c2)cs1 (stereo not given) | -1.58
12 | OC1(CNCCc2nc(Cc3ccccc3)no2)CNCCOC1 (stereo not given) | 0.264
13 | Cc1ccc(N2CCC(C(=O)O)(n3ccc(C(C)C)n3)CC2)nn1 | -1.26
14 | OCCN1CCN(Cc2cnc3c(-c4ccccc4)cnn3c2)CC1 | 6.6
15 | CC1(C)CN(C(=O)c2cnc(CN3CCCC3)s2)CC[C@]1(C)O | -0.621
16 | CC(C)c1nc(CN(C)Cc2ccc(O)c(Cl)c2)cs1 | -13.5
17 | CCc1ncc(C(=O)N(CCOC)Cc2nccs2)cn1 | 5.06
18 | CCn1c(N)nc2cc(C(=O)N3CCN(c4nccs4)CC3)cnc21 | -6.84
19 | CN(CCN1CCCC1)c1nccc(N2CCN[C@H]3CS(=O)(=O)C[C@H]32)n1 | 22.4
20 | COc1ccc(CN(C)C2CCN(S(C)(=O)=O)CC2)c2cccnc12 | -1.77
21 | Cc1cnn(CCC(=O)N2CCN(C(=O)C(C)C)[C@@H]3CS(=O)(=O)C[C@@H]32)c1 | -9.72
22 | Cn1cnc(S(=O)(=O)N2C[C@@H]3CC[C@H](C2)N(Cc2ccccn2)C3)c1 | -7.24

Row | SMILES | cytotoxicity at 70.5 h [%]
23 | CCC(CC)C(=O)N1CCC2(CC1)c1ccccc1[C@@H](OC)[C@@H]2O | -8.24
24 | CCn1nc(C)cc1C(=O)NCc1nc(C)cc(C)n1 | -13.2
25 | CCC[C@H]1CN(CCS(C)(=O)=O)C[C@@H]1NC(=O)c1cccnn1 | 7.31
26 | CC(C)c1cc(C(=O)N2CCCN(CCCc3ccccc3)CC2)[nH]n1 | -8.74
27 | Cc1cc(C(=O)N2CCN[C@H](C)C2)c2ccc(F)cc2n1 | 15.7
28 | COc1ccc(CCNC(=O)N2CCN(C)[C@@H]3CS(=O)(=O)C[C@@H]32)cc1 | -3.24
29 | CC(C)Oc1cc(N2CC[C@@H](N3CCOCC3)[C@H](O)C2)nc(N)n1 | -6.54
30 | Cn1ncc2c(N3CCCN4CCC[C@H]4C3)nc(C(C)(C)C)nc21 | -7.18
31 | CSc1cccc(CN(C)C(=O)Cn2ncc(N3CCCC3)cc2=O)c1 | -3.66
32 | CCNC(=O)[C@@H]1C[C@@H](N)CN1Cc1ccc(-c2ccccc2C#N)o1 | -6.11
33 | CCOc1ccc2[nH]c(=O)c(CN3CCN(S(N)(=O)=O)CC3)cc2c1 | -11.9
34 | CCn1nc(C(C)C)cc1C(=O)NCc1nc2ccc(OC)cc2[nH]1 | -14.7
35 | CCN(C)c1nccc(N2CCN[C@H]3CS(=O)(=O)C[C@H]32)n1 | 10.7
36 | O=C(CCn1cc(Cl)cn1)N1CCN(CCOc2ccccc2)CC1 | -4.12
37 | CCc1csc(CNC(=O)C(CC)n2cccn2)n1 (stereo not given) | -2.46
38 | CCn1c(N)nc2cc(C(=O)NCCCc3ccccn3)cnc21 | -15
39 | O=C(CCc1ccccn1)NC1CCCN(C2Cc3ccccc3C2)C1 (stereo not given) | -8.7
40 | CC(C(=O)O)N1CCc2onc(-c3ccc4c(c3)OCO4)c2C1 (stereo not given) | -3.84
41 | C[C@H](c1ccc(F)cc1)n1c(C2CCN(C)CC2)n[nH]c1=O | 19.4
42 | NCCc1cccc(CN2CCN(c3ccccc3)C(=O)C2)c1 | -9.38
43 | CCn1c(C2CCN(C(=O)c3cc(CC(C)C)on3)CC2)nn(C)c1=O | 6.02
44 | Cc1cc(C(=O)NCc2csc(N(C)C)n2)c2ccc(C)c(C)c2n1 | 0.264

Row | SMILES | cytotoxicity at 70.5 h [%]
45 | CCCc1nnc2sc(CC3CN(Cc4ccccc4)CCO3)nn12 (stereo not given) | -8.68
46 | COc1ccccc1-c1ccc(C(=O)N2C[C@H]3CC[C@@H]2CN(C)C3)cc1 | -8.1
47 | CSCCN1CCC(NC(=O)c2cccc(C3CCCNC3)c2)CC1 (stereo not given) | -24.6
48 | COCCn1c(=O)n(Cc2ccccc2C)c2cc(C(=O)O)ccc21 | -7.93
49 | Cc1ccsc1CN(C)CCc1scnc1C | 14.4
50 | CN(C)C(C(=O)N1CCC(C#N)CC1)c1ccccc1F (stereo not given) | -5.19
51 | O=c1cc(-c2cccnc2)nc(-c2ccc(CN3CC[C@H](O)C3)cc2)[nH]1 | 9.56
52 | c1cc2c(cc1OC[C@@H]1CCCN3CCCC[C@H]13)OCCO2 | 3.85
53 | COc1ccc(-c2noc(Cn3cc(C)cn3)n2)c(OC)c1OC | -1.78
54 | COc1c(F)cccc1C(=O)NC(C)c1cnn(C)c1 (stereo not given) | -8.49
55 | O=C(c1cnccn1)N1CCCC(Cn2cc(C3CCCC3)nn2)C1 (stereo not given) | -10.8
56 | CCn1ccnc1CN1CCCN(CC2CC2)C(C(C)C)C1 (stereo not given) | -5.83
57 | CN(Cc1nncn1C)C(=O)c1cc(COc2ccccc2F)[nH]n1 | -11.1
58 | CN1CCCCC1CCC(=O)NCCCn1ncc2ccccc21 (stereo not given) | -3.92
59 | CCC(CNc1ncnc2oc(C)nc12)Cc1ccccc1 (stereo not given) | -1.88
60 | O=S(=O)(N[C@H]1CC[C@H]1NC1Cc2ccccc2C1)c1cccnc1 | -6.2
61 | CCn1c(C)cc(C(=O)N2C[C@@H](C(=O)O)[C@H](c3ccccc3)C2)c1C | -2.74
62 | CC(=O)N1CCCn2nc(CNc3cc(C)ncn3)cc2C1 | 15
63 | OC1(CNCCN2CCc3ccccc32)CNCCOC1 (stereo not given) | -11
64 | Cn1cccc1C(=O)N1CC[C@@]2(O)CCN(S(C)(=O)=O)C[C@H]2C1 | -6.36
65 | CN(C)S(=O)(=O)N1C[C@@H]2CC[C@H](C1)N(C/C=C/c1ccc(F)cc1)C2 | 0.852
66 | COc1ccc(CN2CCC(CO)(Cc3ccc(Cl)cc3)CC2)c(O)c1 | -11.2

Row | SMILES | cytotoxicity at 70.5 h [%]
67 | O=C(c1cccc(-n2cccn2)c1)N1CCOC(CCO)C1 (stereo not given) | 1.32
68 | Cc1nsc(NC(=O)NC2CCCN(C)C2)n1 (stereo not given) | 29.6
69 | N#Cc1ccnc(N2CCC(NCCN3CCOCC3)CC2)c1 | -2.14
70 | O=C(NCCN1CCCC1)Nc1cc(C(=O)N2CCOCC2)ccc1Cl | -8.22
71 | COc1cc(C2CC(=O)NCc3nc4sccn4c32)cc(OC)c1O (stereo not given) | -13.6
72 | COc1cccc(CC2CN(C(=O)c3ccnn3C)CCO2)c1 (stereo not given) | -4.96
73 | O=c1n(Cc2ncccn2)nc(C2CCNCC2)n1-c1ccccc1 | -2.01
74 | O=C(NC1CC1)c1ccnc(-c2cc(NCCO)nc3[nH]ccc23)c1 | 21.9
75 | OC1CN(Cc2cccc(N3CCOCC3)c2)Cc2ccccc21 (stereo not given) | -0.922
76 | CC(C)NCC1(O)CCCN(CCC2CCCCC2)C1=O (stereo not given) | -7.37
77 | CCOCCN1CCN([C@@H]2c3ccccc3C3(CCNCC3)[C@H]2O)CC1 | 28.9
78 | O=C1OCCN1C1CCN(Cc2cc3n(n2)CCCNC3)CC1 | 17.1
79 | COc1ccc(C)cc1-n1cnnc1CC1CCNCC1 | -3.84
80 | COCCNc1cc(-c2ccccc2C(=O)O)c2cc[nH]c2n1 | -10.4
81 | Cc1cc(CN2CCC(CNC(=O)c3ccc4[nH]cnc4c3)C2)[nH]n1 (stereo not given) | -6.71
82 | COC(=O)[C@H]1C[C@@H](O)CCN1S(=O)(=O)c1cc(C)c(Cl)cc1C | 0.229
83 | O=C(O)[C@@H]1CN(C2CCOCC2)C[C@H]1C1CC1 | -7.25
84 | CSCCC1c2nc[nH]c2CCN1Cc1ccccc1C(F)(F)F (stereo not given) | 0.321
85 | CN(CC(C)(C)C)c1ccc(C(=O)NCCCc2ccccn2)cn1 | -8.74
86 | Nc1nc2c(c(NCc3cnc4c(c3)CCC4)n1)CCNC2 | -10.4
87 | CN1CCCC(c2nc3c([nH]2)CC(C)(C)CNC3=O)C1 (stereo not given) | 13.5
88 | CNc1ccnc(N2C[C@@H](C)[C@](O)(C3CCC3)C2)n1 | 26

Row | SMILES | cytotoxicity at 70.5 h [%]
89 | Cc1cc(-c2cc(C3CCOC3)c(C#N)c(N)n2)ccc1Cl (stereo not given) | -10.8
90 | Cc1nnnn1CCC(=O)N1CCC2(CCC(=O)N(CC3CC3)C2)CC1 | -8.64
91 | CCc1oc(C(=O)NC(C)c2ncn[nH]2)cc1CN1CCCC1 (stereo not given) | -10.5
92 | COc1ccc(F)c(CN2CCCC(O)(CNC3CCCCC3)C2=O)c1 (stereo not given) | -2.81
93 | Cn1cnnc1CCC(=O)N1CCCC(OCc2cccnc2)C1 (stereo not given) | -0.989
94 | CC(C)OCCCNC(=O)C1CCC(=O)N(C2CCCC2)C1 (stereo not given) | 17.3
95 | O=C1OCCN1CCNC(=O)C1(N2CCCCC2)Cc2ccccc2C1 | -7.56
96 | CCc1cc(N(C)CCC(O)c2ccccc2)n2nccc2n1 (stereo not given) | 30.6
97 | CCCn1ncc(C(=O)N(Cc2cccnc2)C[C@@H]2CCC(=O)N2)c1C | -5.8
98 | CC(C)Cc1cc(C(=O)NC(C)(C)CN2CCCCCC2)on1 | -4.52
99 | COc1cccc2c1OCC(C(=O)N1CCN(C3CCSCC3)CC1)C2 (stereo not given) | -7.23
100 | CC(=O)c1ccc(CN2CCCC23CCN(c2ccccn2)CC3)cc1 | -25.1
101 | CC(C)(O)CCc1ccc(C(=O)NCC2CCCOC2)cc1 (stereo not given) | -2.37
102 | CN1CCN(c2cnn(Cc3ccc(S(C)(=O)=O)cc3)c(=O)c2)CC1 | -2.57
103 | CCn1cc(CN2CCCC(COc3ccccc3F)C2)cn1 (stereo not given) | 10.5
104 | O=C(N[C@H]1COC[C@@H]1N1CCCC1)c1c[nH]nc1C1CCCCC1 | -4.22
105 | COc1ccc(F)cc1CN1CCC(O)(CN2CCCCC2)C1 (stereo not given) | -6.56
106 | CCOc1ccc(C(=O)CCC(=O)N(C)Cc2snnc2C)cc1C | -7.49
107 | CC(C)c1nc(C(=O)N2CCCC(N)CC2)cs1 (stereo not given) | 25.2
108 | CC(c1cncs1)N(C)Cc1ccc(CCC(C)(C)O)cc1 (stereo not given) | -5.33
109 | CCc1cc(CN(C)C(=O)CN2CC(c3ccccc3)CC2=O)on1 (stereo not given) | 3.32
110 | O=C(CSCC1CC1)N1CCCC(c2nccn2Cc2ccccn2)C1 (stereo not given) | 0.457
